The target in experiment [1] is T1, GABAA2 receptors (α2, β3, γ2 receptor subunits transfected into Sf9 cells) (Homo sapiens, UniProt P18507+P47869).
T1 construct: host or cells: Sf9 cells (membranes)
As to the kind of experiment: GABAA2 Binding Method ([3H]-Flunitrazepam displacement). Conditions: [3H]-Flunitrazepam ~2 nM, α2β3γ2 Sf9 membranes, 1 hr at 4° C. The protocol:
In some embodiments, the binding test is directed to a subtype of GABAA receptors, such as GABAA1 receptors (i.e., those containing the α1 subunit), GABAA2 receptors (i.e., those containing the α2 subunit), GABAA3 receptors (i.e., those containing the α3 subunit) and GABAA5 receptors (i.e., those containing the α5 subunit).
[^3H]-Flunitrazepam (Cat #NET567): Prepare 10× stock=20 nM, [F} in assay=˜2 nM
1. […] Add 5 ul of 30 uM flumazenil to wells 12 D-E for 50% control wells.
5. Add 25 μl [^3H]-Flunitrazepam (Automation Program 6). Incubate for 1 hr at 4° C.
6. Collect membranes on a cell harvester onto GF/B filter plates (pre-wet with dH2O and wash 5×400 μl/well, with cold assay buffer. (First 3 washes are considered hot; last two are cold.)
Data is analyzed by calculating percent of control, IC50, and Ki in an XLfit template. The following formula is used in the templates: […]

The target in the next experiment is T2, GABAA receptor α1β2γ2 (Homo sapiens, UniProt P14867+P18507).
T2 construct: expressed in transfected cells; host or cells: Xenopus laevis oocytes injected with cRNA
T2 sequence (P14867 28-456): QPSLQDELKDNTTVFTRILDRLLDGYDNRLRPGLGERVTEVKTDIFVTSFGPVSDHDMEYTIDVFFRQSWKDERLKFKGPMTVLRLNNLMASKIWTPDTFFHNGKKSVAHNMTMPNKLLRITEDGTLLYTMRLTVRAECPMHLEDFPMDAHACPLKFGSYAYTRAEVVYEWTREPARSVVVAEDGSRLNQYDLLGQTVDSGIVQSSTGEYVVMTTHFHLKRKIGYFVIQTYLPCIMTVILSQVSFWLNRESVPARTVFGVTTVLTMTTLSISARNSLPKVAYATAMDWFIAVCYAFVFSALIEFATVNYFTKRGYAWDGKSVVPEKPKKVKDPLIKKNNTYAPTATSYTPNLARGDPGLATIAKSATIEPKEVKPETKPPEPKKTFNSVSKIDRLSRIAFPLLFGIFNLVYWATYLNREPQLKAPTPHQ
T2 sequence (P47870 25-512 partner limits assumed): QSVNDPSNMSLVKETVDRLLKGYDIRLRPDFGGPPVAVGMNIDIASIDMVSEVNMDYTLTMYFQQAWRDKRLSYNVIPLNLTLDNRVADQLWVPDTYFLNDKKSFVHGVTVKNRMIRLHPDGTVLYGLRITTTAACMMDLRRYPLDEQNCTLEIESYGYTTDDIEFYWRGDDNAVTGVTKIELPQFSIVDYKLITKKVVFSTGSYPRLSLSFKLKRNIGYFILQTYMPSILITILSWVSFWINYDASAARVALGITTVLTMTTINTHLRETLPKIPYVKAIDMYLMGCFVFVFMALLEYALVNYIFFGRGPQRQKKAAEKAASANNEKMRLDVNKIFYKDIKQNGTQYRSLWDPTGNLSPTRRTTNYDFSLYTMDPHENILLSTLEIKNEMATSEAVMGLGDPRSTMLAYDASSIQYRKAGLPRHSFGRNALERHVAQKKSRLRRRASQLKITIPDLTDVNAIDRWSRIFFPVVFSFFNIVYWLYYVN
T2 sequence (P18507 40-475): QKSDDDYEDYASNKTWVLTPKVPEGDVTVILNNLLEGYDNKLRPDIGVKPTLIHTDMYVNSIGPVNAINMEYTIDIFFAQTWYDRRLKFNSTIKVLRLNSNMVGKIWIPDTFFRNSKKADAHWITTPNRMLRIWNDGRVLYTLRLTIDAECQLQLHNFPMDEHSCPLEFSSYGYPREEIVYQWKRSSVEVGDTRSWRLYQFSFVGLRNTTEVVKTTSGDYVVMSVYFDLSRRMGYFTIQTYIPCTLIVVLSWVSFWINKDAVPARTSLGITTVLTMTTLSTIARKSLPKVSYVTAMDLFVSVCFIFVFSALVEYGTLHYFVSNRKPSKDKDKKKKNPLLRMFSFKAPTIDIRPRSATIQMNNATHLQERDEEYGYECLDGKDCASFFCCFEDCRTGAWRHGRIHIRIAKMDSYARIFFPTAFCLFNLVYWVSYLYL
As to the kind of experiment: Two-electrode voltage-clamp potentiation of GABA EC10 current in Xenopus oocytes, GABAA1. Format: cell-based. Conditions: percentage potentiation of GABA EC10 current divided by that of diazepam. Here is the method: GABAA receptors were heterologously expressed in Xenopus oocytes by injecting cRNA corresponding to human α1, α2, α3, α5, β2, P3 and γ2 subunits of the GABAA receptor genes. The specific subunit combinations (subtypes) were as follows: α1β2γ2, α2β3γ2, α3β3γ2, and α5β3γ2. The EC10 of GABA is approximated for each cell. Stability of GABA-mediated (EC10) current is established. Modulatory effect of test compound is determined and compared across subtypes. […] Thus, the assay can characterize modulatory effects and determine subtype selectivity of test compounds on major subtypes of GABAA receptors.
Xenopus laevis frogs (Xenopus I, Kalamazoo, Mich.) were anesthetized using 0.15% tricaine. Surgically removed ovarian lobes were teased out in OR2 solution (82 NaCl, 2.5 KCl, 5 HEPES, 1.5 NaH2PO4, 1 MgCl2, 0.1 EDTA, in mM, pH 7.4). The oocytes were defolliculated by incubation in 25 mL OR2 containing 0.2% collagenase 1A (SIGMA) two times for about 60 minutes on a platform shaker and stored in Leibovitz's L-15 medium. Oocytes were injected the following day in 0.5× Leibovitz's L-15 medium containing […] gentamycin, 10 units/ml penicillin, and […] streptomycin.
Capped cRNAs from the linearized vectors containing human α1, β2 and γ2 subunits of the GABAA receptor genes were mixed in ratio of […]. Oocytes were injected with 25-50 nL of mixed RNA with an appx molar ratio for α1, β2, and γ2 as 1:1:10. Oocyte recordings were done 2-10 days after injection. The same methods apply to subtypes derived from α2β3γ2, α3β3γ2, and α5β3γ2, except for 1:1:1 ratio was used for α, β, and γ subunits.
All measurements were done in a medium containing ND-96 (96 NaCl, 2 KCl, 1.8 CaCl2.2H2O, 1 MgCl2.6H2O, 5 HEPES, in mM, pH 7.5). Two-electrode voltage-clamp recording was carried out using OpusXpress amplifier (Axon Instruments, Foster City, Calif.), which allows simultaneous recording from 8 oocytes. Oocytes were impaled with two electrodes of 1-2 MΩ tip resistance when filled with 3M KCl. Recordings were begun when membrane potential became stable at potentials negative to −50-−60 mV. Membrane potential was held at −60 mV. […] The concentration of GABA corresponded to the EC10 value calculated for each oocyte. The modulator pulses started 30 s before the GABA pulse so as to allow preincubation with the modulator. A set of 3 pulses with just GABA without modulator was given prior to the modulator-containing pulses to define the baseline GABA response. Two oocytes per each experiment were dedicated to observe the effect of diazepam on GABA response to ensure the presence of γ2 subunit in the GABAA pentameric complex, which imparts diazepam sensitivity to the complex.
Current amplitude (i) was measured from baseline to peak using Clampfit (Axon Inst., Foster City, Calif.). Potentiation was calculated as percent change from the baseline GABA current flux 100×(imod/icontrol)−1) where imod=current mediated by modulator+GABA and icontrol=current mediated by GABA alone. […] Similarly, a value of −50% potentiation means the presence of modulator caused a 50% decrease in the control current. Various other data shown here were fitted and plotted using GraphPad Prism (GraphPad Software, Inc. San Diego, Calif.). The percentage potentiation was converted to relative potentiation by dividing it with percentage potentiation value obtained from the same assay with diazepam as a control.
(Two-electrode voltage clamp is typically applied to oocytes expressing channels or transporters.)

Experimental findings from patent US20080318943A1, “Compounds and Uses Thereof - 848” (ASTRAZENECA AB, priority 2007, published 2008) are described below.

pKi: −log10 of the molar value.

T1 sequence (P47869 29-451): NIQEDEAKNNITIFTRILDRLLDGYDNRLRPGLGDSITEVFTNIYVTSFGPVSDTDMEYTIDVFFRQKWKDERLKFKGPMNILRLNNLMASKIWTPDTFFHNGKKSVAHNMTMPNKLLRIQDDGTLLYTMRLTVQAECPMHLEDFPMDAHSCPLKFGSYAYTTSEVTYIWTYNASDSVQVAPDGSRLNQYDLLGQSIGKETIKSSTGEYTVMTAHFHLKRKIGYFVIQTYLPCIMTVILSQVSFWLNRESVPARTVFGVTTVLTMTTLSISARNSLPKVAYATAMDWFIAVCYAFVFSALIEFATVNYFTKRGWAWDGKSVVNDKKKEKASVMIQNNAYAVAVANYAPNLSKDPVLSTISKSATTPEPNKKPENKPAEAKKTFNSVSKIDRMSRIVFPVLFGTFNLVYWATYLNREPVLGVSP
T1 sequence (P28472 26-473 partner): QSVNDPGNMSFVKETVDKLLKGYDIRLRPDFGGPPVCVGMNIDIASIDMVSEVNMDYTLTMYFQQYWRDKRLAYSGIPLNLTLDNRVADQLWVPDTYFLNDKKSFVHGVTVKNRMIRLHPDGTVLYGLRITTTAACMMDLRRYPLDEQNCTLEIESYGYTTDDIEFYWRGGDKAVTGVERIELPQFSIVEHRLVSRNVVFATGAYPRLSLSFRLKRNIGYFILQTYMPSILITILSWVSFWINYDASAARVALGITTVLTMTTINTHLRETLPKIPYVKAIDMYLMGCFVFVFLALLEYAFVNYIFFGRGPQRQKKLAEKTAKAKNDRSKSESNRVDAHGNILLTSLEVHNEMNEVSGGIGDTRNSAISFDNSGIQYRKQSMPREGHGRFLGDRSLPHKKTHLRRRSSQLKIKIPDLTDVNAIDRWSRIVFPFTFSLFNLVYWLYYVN
T1 sequence (P18507 40-475): as the sequence (P18507 40-475) above

Consider `COc1ccc(CN2Cc3nc4c(-c5ccc(C)nc5C)cccc4c(N)c3C2=O)cc1OC` [9-amino-2-(3,4-dimethoxybenzyl)-5-(2,6-dimethylpyridin-3-yl)-2,3-dihydro-1H-pyrrolo[3,4-b]quinolin-1-one], for which the pKi (in general, the negative decadic logarithm of the Ki, by convention in mol/L) in experiment [1] is 8.57. Also, the “Relative Potentiation for GABAA1” value at GABAA receptor α1β2γ2 was determined as 0.21.

In turn, `COc1ccc(CN2Cc3nc4c(-c5cc(C)ccc5OC)cccc4c(N)c3C2=O)cc1OC` [9-amino-2-(3,4-dimethoxybenzyl)-5-(2-methoxy-5-methylphenyl)-2,3-dihydro-1H-pyrrolo[3,4-b]quinolin-1-one] had a pKi in experiment [1] of 8.04. Further, the “Relative Potentiation for GABAA1” value on GABAA receptor α1β2γ2 was found to be 0.3.

In turn, `COc1ccc(CN2Cc3nc4c(-c5cccnc5OC)cccc4c(N)c3C2=O)cc1OC` [9-amino-2-(3,4-dimethoxybenzyl)-5-(2-methoxypyridin-3-yl)-2,3-dihydro-1H-pyrrolo[3,4-b]quinolin-1-one] had a negative logarithm of the Ki (pKi) in experiment [1] of 8.64. In addition, on GABAA receptor α1β2γ2, the “Relative Potentiation for GABAA1” value worked out at 0.12.

In turn, `COc1ccc(-c2cccc3c(N)c4c(nc23)CN(Cc2ccc(OC)c(OC)c2)C4=O)c(C)n1` [9-amino-2-(3,4-dimethoxybenzyl)-5-(6-methoxy-2-methylpyridin-3-yl)-2,3-dihydro-1H-pyrrolo[3,4-b]quinolin-1-one] showed a pKi in experiment [1] of 8.33. In addition, the “Relative Potentiation for GABAA1” value at GABAA receptor α1β2γ2 came to 0.26.

In experiment [1], `COc1ccc(CN2Cc3nc4c(-c5cccnc5OC)cccc4c(N)c3C2=O)cc1Cl` [9-amino-2-(3-chloro-4-methoxybenzyl)-5-(2-methoxypyridin-3-yl)-2,3-dihydro-1H-pyrrolo[3,4-b]quinolin-1-one] gave a pKi of 8.00. Besides, on GABAA receptor α1β2γ2, the “Relative Potentiation for GABAA1” value is reported as 0.25.

Regarding `COc1ccc(CN2Cc3nc4c(-c5cncc(OC)c5)cccc4c(N)c3C2=O)cc1` [9-amino-2-(4-methoxybenzyl)-5-(5-methoxypyridin-3-yl)-2,3-dihydro-1H-pyrrolo[3,4-b]quinolin-1-one], the pKi in experiment [1] is 8.22. Besides, the “Relative Potentiation for GABAA1” value on GABAA receptor α1β2γ2 stood at 0.22.

Take `COc1ncc(-c2cccc3c(N)c4c(nc23)CN(Cc2ccc3c(c2)OCO3)C4=O)c(OC)n1` [9-amino-2-(benzo[d][1,3]dioxol-5-ylmethyl)-5-(2,4-dimethoxypyrimidin-5-yl)-2,3-dihydro-1H-pyrrolo[3,4-b]quinolin-1-one]: the pKi in experiment [1] is 7.52. For the same compound, on GABAA receptor α1β2γ2, the “Relative Potentiation for GABAA1” value came to 0.4.

With `COc1ccc(OC)c(-c2cccc3c(N)c4c(nc23)CN(Cc2ccc3c(c2)OCO3)C4=O)c1` [9-amino-2-(benzo[d][1,3]dioxol-5-ylmethyl)-5-(2,5-dimethoxyphenyl)-2,3-dihydro-1H-pyrrolo[3,4-b]quinolin-1-one], the pKi in experiment [1] is 7.22. Moreover, the “Relative Potentiation for GABAA1” value at GABAA receptor α1β2γ2 is 0.33.

For `COc1ncccc1-c1cccc2c(N)c3c(nc12)CN(Cc1ccc2c(c1)OCO2)C3=O` [9-amino-2-(benzo[d][1,3]dioxol-5-ylmethyl)-5-(2-methoxypyridin-3-yl)-2,3-dihydro-1H-pyrrolo[3,4-b]quinolin-1-one], in experiment [1], the pKi is 8.24. Moreover, on GABAA receptor α1β2γ2, the “Relative Potentiation for GABAA1” value amounted to 0.24.

`COc1ccncc1-c1cccc2c(N)c3c(nc12)CN(Cc1ccc2c(c1)OCO2)C3=O` [9-amino-2-(benzo[d][1,3]dioxol-5-ylmethyl)-5-(4-methoxypyridin-3-yl)-2,3-dihydro-1H-pyrrolo[3,4-b]quinolin-1-one] gave a negative-log Ki (pKi) in experiment [1] of 8.66. For the same compound, the “Relative Potentiation for GABAA1” value on GABAA receptor α1β2γ2 came out at 0.28.

`CCCCN1Cc2nc3c(-c4c(F)cccc4OC)cccc3c(N)c2C1=O` [9-amino-2-butyl-5-(2-fluoro-6-methoxyphenyl)-2,3-dihydro-1H-pyrrolo[3,4-b]quinolin-1-one] had a pKi in experiment [1] of 8.34. For the same compound, on GABAA receptor α1β2γ2, the “Relative Potentiation for GABAA1” value stood at 0.25.

As to `CCCCN1Cc2nc3c(-c4cc(C)ccc4OC)cccc3c(N)c2C1=O` [9-amino-2-butyl-5-(2-methoxy-5-methylphenyl)-2,3-dihydro-1H-pyrrolo[3,4-b]quinolin-1-one], the pKi in experiment [1] was 7.67. In addition, the “Relative Potentiation for GABAA1” value at GABAA receptor α1β2γ2 turned out to be 0.56.

Regarding `CCCCN1Cc2nc3c(-c4cccnc4OC)cccc3c(N)c2C1=O` [9-amino-2-butyl-5-(2-methoxypyridin-3-yl)-2,3-dihydro-1H-pyrrolo[3,4-b]quinolin-1-one], in experiment [1], the pKi is 7.71. The “Relative Potentiation for GABAA1” value at GABAA receptor α1β2γ2 is recorded as 0.5.

For `Nc1c2c(nc3c(-c4cc(Cl)ccc4Cl)cccc13)CN(C1CCC1)C2=O` [9-amino-2-cyclobutyl-5-(2,5-dichlorophenyl)-2,3-dihydro-1H-pyrrolo[3,4-b]quinolin-1-one], the pKi in experiment [1] was 8.50. Also, the “Relative Potentiation for GABAA1” value at GABAA receptor α1β2γ2 worked out at 0.16.

In the case of `COc1ccc(C)cc1-c1cccc2c(N)c3c(nc12)CN(C1CCC1)C3=O` [9-amino-2-cyclobutyl-5-(2-methoxy-5-methylphenyl)-2,3-dihydro-1H-pyrrolo[3,4-b]quinolin-1-one], the negative-log Ki (pKi) in experiment [1] was 8.39. The “Relative Potentiation for GABAA1” value at GABAA receptor α1β2γ2 was 0.19.

`Nc1c2c(nc3c(-c4ccccc4C(F)(F)F)cccc13)CN(C1CC1)C2=O` [9-amino-2-cyclopropyl-5-(2-(trifluoromethyl)phenyl)-2,3-dihydro-1H-pyrrolo[3,4-b]quinolin-1-one] gave a negative logarithm of the Ki (pKi) in experiment [1] of 7.64. The “Relative Potentiation for GABAA1” value on GABAA receptor α1β2γ2 is listed as 0.48.

In experiment [1], `COc1ccc(C)cc1-c1cccc2c(N)c3c(nc12)CN(C1CC1)C3=O` [9-amino-2-cyclopropyl-5-(2-methoxy-5-methylphenyl)-2,3-dihydro-1H-pyrrolo[3,4-b]quinolin-1-one] gave a pKi of 8.32. Also, the “Relative Potentiation for GABAA1” value at GABAA receptor α1β2γ2 turned out to be 0.28.

`COc1ccc(-c2cccc3c(N)c4c(nc23)CN(C2CC2)C4=O)c(C(F)(F)F)c1` [9-amino-2-cyclopropyl-5-(4-methoxy-2-(trifluoromethyl)phenyl)-2,3-dihydro-1H-pyrrolo[3,4-b]quinolin-1-one] showed a pKi in experiment [1] of 7.50. Further, on GABAA receptor α1β2γ2, the “Relative Potentiation for GABAA1” value stood at 0.5.

`COc1ccncc1-c1cccc2c(N)c3c(nc12)CN(C1CC1)C3=O` [9-amino-2-cyclopropyl-5-(4-methoxypyridin-3-yl)-2,3-dihydro-1H-pyrrolo[3,4-b]quinolin-1-one] gave a negative logarithm of the Ki (pKi) in experiment [1] of 8.09. In addition, on GABAA receptor α1β2γ2, the “Relative Potentiation for GABAA1” value is given as 0.21.

On to `COc1ccc(C)cc1-c1c(F)ccc2c(N)c3c(nc12)CN(C1CC1)C3=O` [9-amino-2-cyclopropyl-6-fluoro-5-(2-methoxy-5-methylphenyl)-2,3-dihydro-1H-pyrrolo[3,4-b]quinolin-1-one], for which the pKi in experiment [1] was 8.12. On GABAA receptor α1β2γ2, the “Relative Potentiation for GABAA1” value is reported as 0.23.

Turning to `CCN1Cc2nc3c(-c4cc(C)ccc4OC)cccc3c(N)c2C1=O` [9-amino-2-ethyl-5-(2-methoxy-5-methylphenyl)-2,3-dihydro-1H-pyrrolo[3,4-b]quinolin-1-one], the pKi in experiment [1] is 7.59. The “Relative Potentiation for GABAA1” value on GABAA receptor α1β2γ2 was found to be 0.2.
